Data taken from article PMC6270420, “Antibacterial Activity of Salicylanilide 4-(Trifluoromethyl)benzoates” (Molecules, 2013).
Converted amounts (≈) assume the structure as drawn. Where two headings read alike, the source gives them in different places.

Assays:
[1] = biological target: T1, mycobacterial isocitrate lyase (ICL1, Rv0467) (Mycobacterium tuberculosis, UniProt P9WKK7); assay: Isocitrate lyase inhibition assay (ICL1); format: biochemical, Mycobacterium tuberculosis H37Rv; settings: 10 μmol/L; read-out: % ICL inhibition at 10 μmol/L (± standard deviation)
T1 construct: His tag (from pET-28b(+)); made in house; host or cells: E. coli BL21(DE3), pET-28b(+) plasmid
T1 sequence (P9WKK7 1-428): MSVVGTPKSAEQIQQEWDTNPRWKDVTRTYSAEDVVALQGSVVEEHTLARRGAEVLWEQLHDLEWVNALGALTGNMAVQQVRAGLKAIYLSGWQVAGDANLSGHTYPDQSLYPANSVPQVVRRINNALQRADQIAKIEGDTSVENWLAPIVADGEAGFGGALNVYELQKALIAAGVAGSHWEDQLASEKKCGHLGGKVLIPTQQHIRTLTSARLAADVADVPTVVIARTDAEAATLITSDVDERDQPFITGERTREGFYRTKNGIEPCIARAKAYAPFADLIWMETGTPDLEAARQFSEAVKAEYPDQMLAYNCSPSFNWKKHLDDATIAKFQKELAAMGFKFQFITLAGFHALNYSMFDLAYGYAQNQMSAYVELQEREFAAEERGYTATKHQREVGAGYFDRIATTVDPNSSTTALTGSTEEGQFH

Mtb. 9449/2006 = assay: microbe, parasite or virus in culture; format: cell-based; settings: Mycobacterium tuberculosis, read-out: MIC Mtb. 9449/2006
[2] = system: Mycobacterium kansasii 235/80; assay: Antimycobacterial MIC micromethod; format: cell-based; settings: read-out: MIC M. kansasii 235/80
[3] = system: Gram-positive cocci including MRSA; assay: Antibacterial microdilution, summary for Gram-positive cocci; format: cell-based; settings: Staphylococcus aureus, read-out: MICs against Gram-positive cocci
Protocol: (§1) The in vitro antibacterial activity was assayed against eight Gram-positive and Gram-negative strains: Staphylococcus aureus CCM 4516/08, methicillin-resistant Staphylococcus aureus H 5996/08 (MRSA), Staphylococcus epidermidis H 6966/08, Enterococcus sp. J 14365/08; Escherichia coli CCM 4517, Klebsiella pneumoniae D 11750/08, ESBL-positive Klebsiella pneumoniae J 14368/08, and Pseudomonas aeruginosa CCM 1961.
(§2) The microdilution broth method modified according to standard M07-A07 in Mueller-Hinton broth (HiMedia Laboratories, Mumbai, India) adjusted to pH 7.4 (±0.2) was used. The tested compounds were dissolved in DMSO to the final concentrations ranging from […]. Benzylpenicillin (penicillin G) was used as a comparative drug. Bacterial inoculum in sterile water was prepared to match 0.5 McFarland scale ([…]). The minimum inhibitory concentrations were assayed as 90% (IC90) or higher reduction of growth when compared to the control. The determination of results was performed visually and spectrophotometrically (at 540 nm). The values of MICs were determined after 24 and 48 h of incubation in the darkness at 35 °C (±0.1) in a humid atmosphere.

[4] = system: Escherichia coli CCM 4517; assay: Antibacterial microdilution broth method; format: cell-based; settings: read-out: MIC/IC90 E. coli CCM 4517
Protocol: as §1, §2

[5] = system: Enterococcus sp. J 14365/08; assay: Antibacterial microdilution broth method; format: cell-based; settings: read-out: MIC/IC90 Enterococcus sp. J 14365/08
Protocol: as §1, §2

[6] = system: methicillin-resistant Staphylococcus aureus H 5996/08 (MRSA); assay: Antibacterial microdilution broth method; format: cell-based; settings: read-out: MIC/IC90 MRSA H 5996/08
Protocol: as §1, §2

[7] = system: Staphylococcus epidermidis H 6966/08; assay: Antibacterial microdilution broth method; format: cell-based; settings: read-out: MIC/IC90 S. epidermidis H 6966/08
Protocol: as §1, §2

[8] = system: Staphylococcus aureus CCM 4516/08; assay: Antibacterial microdilution broth method; format: cell-based; settings: read-out: MIC/IC90 S. aureus CCM 4516/08
Protocol: as §1, §2

Mtb. 234/2005 = assay: microbe, parasite or virus in culture; format: cell-based; settings: Mycobacterium tuberculosis, read-out: MIC Mtb. 234/2005
Mtb. 53/2009 = assay: microbe, parasite or virus in culture; format: cell-based; settings: Mycobacterium tuberculosis, read-out: MIC Mtb. 53/2009
[9] = system: Mycobacterium avium 330/88; assay: Antimycobacterial MIC micromethod; format: cell-based
Mtb. Praha 1 = assay: microbe, parasite or virus in culture; format: cell-based; settings: Mycobacterium tuberculosis, read-out: MIC Mtb. Praha 1
Mtb. 7357/1988 = assay: microbe, parasite or virus in culture; format: cell-based; settings: Mycobacterium tuberculosis, read-out: MIC Mtb. 7357/1988
[10] = system: Mycobacterium tuberculosis 331/88 (H37Rv); assay: Antimycobacterial MIC micromethod, Šula's medium; format: cell-based; settings: read-out: MIC Mtb. 331/88
[11] = system: M. kansasii 6509/96 (clinically isolated strain); assay: Antimycobacterial MIC micromethod; format: cell-based; settings: Mycobacterium kansasii, read-out: MIC M. kansasii 6509/96
Mtb. Praha 131 (XDR-TB) = assay: microbe, parasite or virus in culture; format: cell-based; settings: Mycobacterium tuberculosis, read-out: MIC Mtb. Praha 131 (XDR-TB)

Row | Structure (SMILES) | inhibition at 10 µM [1] [%] | MIC ([2]; 235/80, 168 h, 7 d) [µM] | MIC ([2]; 235/80, 336 h, 14 d) [µM] | MIC ([2]; 235/80, 504 h, 21 d) [µM] | MIC [3] [µM] | MIC ([4]; CCM4517, 24 h) [µM] | MIC ([4]; CCM4517, 48 h) [µM] | MIC ([5]; SP.J14365/08, 24 h) [µM] | MIC ([5]; SP.J14365/08, 48 h) [µM] | MIC ([6]; 24 h) [µM] | MIC ([6]; 48 h) [µM] | MIC ([7]; H6966/08, 24 h) [µM] | MIC ([7]; H6966/08, 48 h) [µM] | MIC ([8]; CCM4516, 24 h) [µM] | MIC ([8]; CCM4516, 48 h) [µM] | MIC ([9]; 330/88, 336 h, 14 d) [µM] | MIC ([9]; 330/88, 504 h, 21 d) [µM] | MIC ([10]; 336 h, 14 d) [µM] | MIC ([10]; 504 h, 21 d) [µM] | MIC ([11]; 168 h, 7 d) [µM] | further results
1 | O=C(Oc1cc(Cl)ccc1C(=O)Nc1cccc(Cl)c1)c1ccc(C(F)(F)F)cc1 [1b] | 13 ± 1.7 | 1 (≈ 0.454 µg/mL) | 4 (≈ 1.82 µg/mL) | 4 (≈ 1.82 µg/mL) | < 1 | > 250 | > 250 | 7.81 (≈ 3.55 µg/mL) | 15.6 (≈ 7.1 µg/mL) | 0.98 (≈ 0.445 µg/mL) | 1.95 (≈ 0.886 µg/mL) | 0.98 (≈ 0.445 µg/mL) | 1.95 (≈ 0.886 µg/mL) | 0.98 (≈ 0.445 µg/mL) | 1.95 (≈ 0.886 µg/mL) | 8 (≈ 3.63 µg/mL) | 8 (≈ 3.63 µg/mL) | 4 (≈ 1.82 µg/mL) | 4 (≈ 1.82 µg/mL) | 2 (≈ 0.908 µg/mL) | MIC (Mtb. 9449/2006; 336 h): 4 µM (≈ 1.82 µg/mL); MIC (Mtb. 9449/2006; 504 h): 4 µM (≈ 1.82 µg/mL); MIC (Mtb. 234/2005; 336 h): 8 µM (≈ 3.63 µg/mL); MIC (Mtb. 234/2005; 504 h): 8 µM (≈ 3.63 µg/mL); MIC (Mtb. 53/2009; 336 h): 8 µM (≈ 3.63 µg/mL); MIC (Mtb. 53/2009; 504 h): 8 µM (≈ 3.63 µg/mL); MIC (Mtb. Praha 1; 336 h): 4 µM (≈ 1.82 µg/mL); MIC (Mtb. Praha 1; 504 h): 4 µM (≈ 1.82 µg/mL); MIC (Mtb. 7357/1988; 336 h): 8 µM (≈ 3.63 µg/mL); MIC (Mtb. 7357/1988; 504 h): 8 µM (≈ 3.63 µg/mL); MIC ([11]; 336 h, 14 d): 8 µM (≈ 3.63 µg/mL); MIC ([11]; 504 h, 21 d): 8 µM (≈ 3.63 µg/mL); MIC (Mtb. Praha 131 (XDR-TB); 336 h): 8 µM (≈ 3.63 µg/mL); MIC (Mtb. Praha 131 (XDR-TB); 504 h): 8 µM (≈ 3.63 µg/mL)
2 | O=C(Oc1ccc(Cl)cc1C(=O)Nc1cccc(F)c1)c1ccc(C(F)(F)F)cc1 [1k] | ≥ 20 | 8 (≈ 3.5 µg/mL) | 16 (≈ 7 µg/mL) | 16 (≈ 7 µg/mL) | < 1 | > 250 | > 250 | 31.2 (≈ 13.7 µg/mL) | > 250 | 0.98 (≈ 0.429 µg/mL) | 1.95 (≈ 0.854 µg/mL) | 3.9 (≈ 1.71 µg/mL) | 3.9 (≈ 1.71 µg/mL) | 3.9 (≈ 1.71 µg/mL) | 3.9 (≈ 1.71 µg/mL) | 16 (≈ 7 µg/mL) | 32 (≈ 14 µg/mL) | 8 (≈ 3.5 µg/mL) | 8 (≈ 3.5 µg/mL) | 8 (≈ 3.5 µg/mL) | MIC ([11]; 336 h, 14 d): 16 µM (≈ 7 µg/mL); MIC ([11]; 504 h, 21 d): 16 µM (≈ 7 µg/mL)
